According to patent EP4806445A1, “USE OF COMPOSITION FOR PREVENTING, ALLEVIATING OR TREATING DIABETIC KIDNEY DISEASE COMPRISING ZINC SALT AND CYCLO-HISPRO AS ACTIVE INGREDIENTS” (Novmetapharma Co., Ltd., priority 2023, dated 2025):

Experiments:
Assay type in all cases: in vivo
KKAy mice [1] = assay: Measurement of urine albumin (albuminuria) in diabetic kidney disease model; conditions: week 16 of administration; for albuminuria: 24-hour urine, losartan 20 mg/kg in drinking water, dapagliflozin 2 mg/kg, CycloZ 15 mg/kg oral daily, negative control 51.4; for decrease in albuminuria compared to the negative control group: same doses as E1
Experimental: Five-week-old KKay mice were purchased from Clea, Japan, and as a normal control group, five-week-old C57BL6/J mice were purchased from Daehan Bio Link Co., Ltd. Breeding was performed under constant conditions (temperature: 22±2 °C, relative humidity: 55±10%, circadian cycle: 12 hours), and Purina mouse diet was used as feed and distilled water was used as drinking water. Mice were used in the experiment after a one-week adaptation period following purchase. Lorsartan used in the examples below was purchased from […], and dapagliflozin was purchased from Betapahrma. Metabolic cages were prepared using products from Jeongdo B&P Co., Ltd. Isoflurane, which is necessary for anesthesia and dissection of mice, was purchased from Hana Pharm Co., Ltd., and the RC2 Rodent Circuit Controller Anesthesia System from Vetequip was prepared. Phosphate buffered saline (PBS) was purchased from Hyclone. The KKAy animal model is known to have 10-50 times higher proteinuria (albuminuria) than the db/db animal model, and is reported to show the most severe mesangial matrix expansion among all models. […] The normal control group and the negative control group were orally administered the same amount of distilled water daily. [Table 1] At week 16 of administration, 24-hour urine was collected using a metabolic cage and centrifuged at 2,000 rpm for 10 minutes to remove suspended solids. Albumin was measured with a DCA vantage analyzer (Siemens) and DCA® Microalbumin/Creatinine Urine Test cartridge (Siemens) using urine diluted 1/10 with distilled water.

KKAy mice [2] = assay: ACR, drug administration from severe condition, CycloZ, losartan and/or sitagliptin (Example 4); conditions: week 9
Experimental: (§1) At week 11 of administration, 24-hour urine was collected using a metabolic cage and centrifuged at 1,000 rpm for 5 minutes to remove suspended solids. Albumin was measured with a DCA vantage analyzer (Siemens) and DCA® Microalbumin/Creatinine Urine Test cartridge (Siemens) using urine diluted 1/2 with distilled water. Creatinine was measured using undiluted urine and a mouse creatinine assay kit (Crystalchem). The measured albumin (mg/dL) value was divided by the creatinine (g/dL) value to derive the ACR (mg/g) value.
(§2) After breeding five-week-old KKAy mice of Example 1-1 for 6 weeks, urine was collected for 24 hours and ACR was measured using the same method as in Example 3-2. The groups were randomly divided as shown in Table 5 so that the average ACR values were the same, and then the drug was orally administered daily for 9 weeks from the age of 12 weeks as shown in Table 5. At this time, losartan was dissolved in drinking water to allow a daily intake of 20 mg/kg per subject, and the remaining drugs were orally administered daily.
At week 9 of administration, 24-hour urine was collected using a metabolic cage, and ACR was measured using the same method as in Example 3-2.

KKAy mice [3] = assay: ACR, drug administration from severe condition, CycloZ and/or metformin (Example 5); conditions: week 12
Experimental: as §1
as §2, with “6” for “5”, “12” for “9”, “6.” for “5. At this time, losartan was dissolved in drinking water to allow a daily intake of 20 mg/kg per subject, and the remaining drugs were orally administered daily.”
At week 12 of administration, 24-hour urine was collected using a metabolic cage, and ACR was measured using the same method as in Example 3-2.

KKAy mice [4] = assay: ACR, drug administration from severe condition, CycloZ and/or sitagliptin (Example 3-3/3-4); conditions: week 11
Experimental: as §1
as §2, with “4” for “5”, “11” for “9”, “4.” for “5. At this time, losartan was dissolved in drinking water to allow a daily intake of 20 mg/kg per subject, and the remaining drugs were orally administered daily.”
At week 11 of administration, 24-hour urine was collected using a metabolic cage, and ACR was measured using the same method as in Example 3-2.

KKAy mice [5] = assay: ACR, drug administration from mild condition (Example 3-1/3-2); conditions: administration from mild stage, week 11
Experimental: Five-week-old KKAy mice of Example 1-1 were pre-bred for one week and then divided into groups as shown in Table 1 so that the average body weights were the same. The control group was orally administered distilled water for 11 weeks, while Group 1 was orally administered 15 mg/kg of CycloZ, Group 2 was orally administered 10 mg/kg of sitagliptin, and Group 3 was orally administered 10 mg/kg of sitagliptin + 15 mg/kg of CycloZ daily for the same period.
as §1

[6] = administration from severe stage

How did the albuminuria (KKAy mice [1]) turn out when CCOc1ccc(Cc2cc([C@@H]3O[C@H](CO)[C@@H](O)[C@H](O)[C@H]3O)ccc2Cl)cc1 [Dapagliflozin, dapagliflozin] was run?
Its albuminuria is 31.1 mg/dL.

And the “decrease in albuminuria compared to the negative control group” value (KKAy mice [1])?
Its value is 39.5%.

CCCCc1nc(Cl)c(CO)n1Cc1ccc(-c2ccccc2-c2nn[nH]n2)cc1 [Losartan, losartan] was tested. Which albuminuria (KKAy mice [1]) did it give?
The albuminuria was 39.3 mg/dL.

What about the “decrease in albuminuria compared to the negative control group” value (KKAy mice [1]) of the same molecule?
The value was 23.5%.

And the ACR (KKAy mice [2]; administration from severe stage (age 12 weeks), CycloZ 15 mg/kg, losartan 20 mg/kg in drinking water, sitagliptin 10 mg/kg, negative control 7,118)?
The ACR was 7,158 mg/g.

What about the “effect on alleviating ACR (result in words)” value (KKAy mice [2]; [6]) of the same molecule?
Its value is “did not show a significant effect on alleviating ACR”.

For CN(C)C(=N)N=C(N)N [Metformin, metformin], which ACR (KKAy mice [3]; administration from severe stage (age 12 weeks), CycloZ 15 mg/kg, metformin 200 mg/kg oral daily, negative control 2,369) is on record?
The ACR was 2,952 mg/g.

What about the “effect on alleviating ACR (result in words)” value (KKAy mice [3]; [6]) of the same molecule?
Its value is “did not show a significant effect on alleviating ACR”.

With N[C@@H](CC(=O)N1CCn2c(nnc2C(F)(F)F)C1)Cc1cc(F)c(F)cc1F [Sitagliptin, sitagliptin] as the molecule, how does the ACR (KKAy mice [4]; administration from severe stage (age 12 weeks), CycloZ 15 mg/kg, sitagliptin 10 mg/kg oral daily, negative control 4,450) read?
The ACR was 2,301 mg/g.

And the “ACR decrease compared to the negative control group” value (KKAy mice [4]; [6])?
Its value is 48%.

What about the “ACR reduced compared to the control group” value (KKAy mice [5]) of the same molecule?
The value was about 24%.

What about the ACR (KKAy mice [5]; CycloZ 15 mg/kg, sitagliptin 10 mg/kg oral daily, negative control 6,379) of the same molecule?
The ACR was 4,852 mg/g.
